Reference: article PMC6792352, “Limited Chemical Structural Diversity Found to Modulate Thyroid Hormone Receptor in the Tox21 Chemical Library” (Environmental Health Perspectives, 2019)
Counter-ions that a name gives are not always drawn.

Experiment: in vitro
Settings: rat, gh3-tre-luc cells

Row | SMILES | CC50 at 24 h (AC50 (uM) modified / 1000) [µM] | other results
1 | ClCc1ccccn1 [2-(Chloromethyl)pyridine hydrochloride] | > 90 | –
2 | CCOc1ccc2[nH]cc(C(=O)NCc3ccccc3)c(=O)c2n1 [CP-457920] | > 90 | –
3 | CCCCCCc1ccc(N)cc1 [4-Hexylaniline] | 81.3 | –
4 | CC(C)[C@H](C(=O)O[C@H](C#N)c1cccc(Oc2ccccc2)c1)c1ccc(Cl)cc1 [Esfenvalerate] | > 90 | –
5 | C=C[C@H]1C[N@@]2CC[C@H]1C[C@@H]2[C@@H](O)c1ccnc2ccccc12 [Cinchonine] | > 50 | –
6 | O=S(=O)(O)CC(S)CS (stereo not drawn) [Sodium 2,3-dimercaptopropanesulfonate hydrate] | > 50 | –
7 | CC1CCc2cc(F)cc3c(=O)c(C(=O)O)cn1c23 (stereo not drawn) [Flumequine] | > 50 | –
8 | CN(C)C(=O)Nc1ccccc1 [Fenuron] | > 90 | –
9 | CC(=O)Nc1ccc(OC(C)=O)cc1 [Diacetamate] | > 50 | –
10 | N=C(N)NCc1cccc(I)c1 [3-Iodobenzylguanidine hemisulfate] | > 50 | –
11 | CCCCC(CC)CO (stereo not drawn) [2-Ethyl-1-hexanol] | > 90 | –
12 | Cc1ccnc(N)c1 [4-Methylpyridin-2-amine] | > 90 | –
13 | O=C1c2ccccc2C(=O)C1C(=O)C(c1ccccc1)c1ccc(Cl)cc1 (stereo not drawn) [Chlorophacinone] | – | CC50 at 24 h (AC50 (uM) modified / 1000, Tox21_110001=Tox21_301565, viability, 1 nM T3 present, 24 h): 42.3 µM
14 | O=C(O)c1cc(Cl)ccc1Cl [2,5-Dichlorobenzoic acid] | – | CC50 at 24 h (AC50 (uM) modified / 1000, Tox21_110001=Tox21_200321, viability, 1 nM T3 present, 24 h): > 90 µM
15 | CC1(C)CC(=O)CC(C)(C)N1 [2,2,6,6-Tetramethyl-4-piperidone] | > 90 | –
16 | ClCCCCBr [1-Bromo-4-chlorobutane] | – | CC50 at 24 h (AC50 (uM) modified / 1000, Tox21_110001=Tox21_202866, viability, 1 nM T3 present, 24 h): > 90 µM
17 | O=C(/C=C/c1ccc(O)c(O)c1)O[C@@H]1C[C@](OC(=O)/C=C/c2ccc(O)c(O)c2)(C(=O)O)C[C@@H](O)[C@H]1O [1,5-Dicaffeoylquinic acid] | > 50 | –
18 | Oc1ccc(Cc2ccccc2)cc1 [4-Benzylphenol] | 84.1 | –
19 | Oc1ccc(C(O)CNCCCCCCNCC(O)c2ccc(O)c(O)c2)cc1O (stereo not drawn) [Hexoprenaline sulfate] | 20.9 | –
20 | OC(CCN1CCCCC1)(c1ccccc1)C1CCCCC1 (stereo not drawn) [Trihexyphenidyl hydrochloride] | > 50 | –
21 | Clc1ccc(Cl)c(Cl)c1 [1,2,4-Trichlorobenzene] | > 90 | –

Row | SMILES | CC50 at 24 h (AC50 (uM) modified / 1000) [µM] | other results
22 | CC(CCc1ccc(O)cc1)NCCc1ccc(O)c(O)c1 (stereo not drawn) [Dobutamine] | > 50 | –
23 | CCC(C)C=O (stereo not drawn) [2-Methylbutanal] | > 90 | –
24 | CC(=O)CC(C)=O [2,4-Pentanedione] | > 100 | –
25 | CCCCNc1ccc(C(=O)OCCOCCOCCOCCOCCOCCOCCOCCOCCOC)cc1 [Benzonatate] | > 20 | –
26 | Oc1ccccc1/C=N/Cc1ccccc1 [Norletimol] | > 50 | –
27 | Cn1cc(NC(=O)c2cc(NC(=O)c3cc(NC=O)cn3C)cn2C)cc1C(=O)NCCC(=N)N [Stallimycin] | > 50 | –
28 | CCOC(=O)CCN(SN(C)C(=O)Oc1cccc2c1OC(C)(C)C2)C(C)C [Benfuracarb] | – | CC50 at 24 h (AC50 (uM) modified / 1000, Tox21_110001=Tox21_301582, viability, 1 nM T3 present, 24 h): 64 µM
29 | Clc1ccc(C(Cn2ccnc2)OCc2csc3c(Cl)cccc23)c(Cl)c1 (stereo not drawn) [Sertaconazole nitrate] | 18.4 | –
30 | C=CC1CC2C=CC1C2 (stereo not drawn) [5-Vinyl-2-norbornene] | > 90 | –
31 | CCCCCCCCCCCCCCCCCCCl [Octadecyl chloride] | > 5 | –
32 | OCCCO [1,3-Propanediol] | > 200 | –
33 | CCCC(C(=O)OCCN(CC)CC)(c1ccccc1)c1ccccc1 [Proadifen hydrochloride] | 24.7 | –
34 | CN(CCCCCCCCCCN(C)C(=O)Oc1cccc([N+](C)(C)C)c1)C(=O)Oc1cccc([N+](C)(C)C)c1 [Demecarium bromide] | > 20 | –
35 | CCCCCOC(=O)Nc1nc(=O)n([C@@H]2O[C@H](C)[C@@H](O)[C@H]2O)cc1F [Capecitabine] | > 50 | –
36 | C/C=C1\[C@H]2C=C(C)C[C@]1(N)c1ccc(=O)[nH]c1C2 [Huperzine A] | > 50 | –
37 | CCOC(=O)CCC(C)=O [Ethyl levulinate] | > 90 | –
38 | CC[C@@H](NC(C)C)[C@@H](O)c1ccc(O)c2[nH]c(=O)ccc12 [Procaterol] | > 50 | –
39 | CC[C@H]1C[C@@H]2C[C@H]3c4[nH]c5ccc(OC)cc5c4CCN(C2)[C@@H]13 [Ibogaine hydrochloride] | 62.4 | –
40 | COCCOC(=O)C1=C(C)NC(C)=C(C(=O)OC(C)C)C1c1cccc([N+](=O)[O-])c1 (stereo not drawn) [Nimodipine] | > 50 | –
41 | OC1CCC(C2CCCCC2)CC1 (stereo not drawn) [4-Cyclohexylcyclohexanol] | > 90 | –
42 | CCCCCCC/C=C/C=O [(2E)-2-Decenal] | > 90 | –

Row | SMILES | CC50 at 24 h (AC50 (uM) modified / 1000) [µM] | other results
43 | Cc1cc(O)ccc1O [Methylhydroquinone] | 14.8 | –
44 | CCN(CC)N=O [N-Nitrosodiethylamine] | – | CC50 at 24 h (AC50 (uM) modified / 1000, Tox21_110001=Tox21_201255, viability, 1 nM T3 present, 24 h): > 90 µM
45 | NNS(=O)(=O)c1ccc(Oc2ccc(S(=O)(=O)NN)cc2)cc1 [4,4'-Oxybis(benzenesulfohydrazide)] | > 90 | –
46 | COc1cccc2c1C(=O)c1c(O)c3c(c(O)c1C2=O)C[C@@](O)(C(C)=O)C[C@@H]3O[C@H]1C[C@H](N)[C@H](O)[C@H](C)O1 [Daunomycin hydrochloride] | 0.244 | –
47 | CC(=O)Oc1cccc(C)c1 [m-Cresyl acetate] | > 50 | –
48 | CCC1CCC(=O)O1 (stereo not drawn) [gamma-Caprolactone] | – | CC50 at 24 h (AC50 (uM) modified / 1000, Tox21_110001=Tox21_300875, viability, 1 nM T3 present, 24 h): > 100 µM
49 | COCCCOc1ccnc(C[S+]([O-])c2nc3ccccc3[nH]2)c1C (stereo not drawn) [Rabeprazole sodium] | > 90 | –
50 | Cc1c(-c2cccnc2)c2ccccc2n1CCCCC(=O)O [UK-156819] | > 90 | –
51 | CC(C)[C@@H]1CC[C@@H](C)CC1=O [(2S,5R)-5-Methyl-2-(propan-2-yl)cyclohexanone] | > 90 | –
52 | CCCC/C=C\CCCCCCCCCC=O [(Z)-11-Hexadecenal] | > 90 | –
53 | O=C(O)CNC(=O)c1ccc(CO)o1 [5-(Hydroxymethyl-2-furoyl)glycine] | > 90 | –
54 | C=CCSSSCC=C [Diallyl trisulfide] | > 50 | –
55 | CCCCC(CC)CNC(=N)NC(=N)NCCCCCCNC(=N)NC(=N)NCC(CC)CCCC (stereo not drawn) [Alexidine dihydrochloride] | 7.36 | –
56 | C=CCCC [1-Pentene] | > 90 | –
57 | O=C(O)c1ccc(-n2nc(-c3ccccc3O)nc2-c2ccccc2O)cc1 [Deferasirox] | 41.8 | –
58 | COCCOC(=O)c1ccccc1C(=O)OCCOC [Di(2-methoxyethyl) phthalate] | > 90 | –
59 | COc1ccc2c(c1OC)C(=O)O[C@H]2[C@@H]1c2cc3c(cc2CCN1C)OCO3 [(1S,9R)-beta-Hydrastine] | – | CC50 at 24 h (AC50 (uM) modified / 1000, Tox21_110001=Tox21_110815, viability, 1 nM T3 present, 24 h): > 50 µM
60 | OCC(CO)(CO)CO [Pentaerythritol] | > 100 | –
61 | CC1CN1P(=O)(N1CC1C)N1CC1C (stereo not drawn) [Metepa] | – | CC50 at 24 h (AC50 (uM) modified / 1000, Tox21_110001=Tox21_301807, viability, 1 nM T3 present, 24 h): > 90 µM
62 | CCOc1ccccc1O [2-Ethoxyphenol] | > 90 | –
63 | CCNc1nc(N)nc(Cl)n1 [Deisopropylatrazine] | > 90 | –

Row | SMILES | CC50 at 24 h (AC50 (uM) modified / 1000) [µM] | other results
64 | CC(C)(C)c1ccc(CSc2cnn(C(C)(C)C)c(=O)c2Cl)cc1 [Pyridaben] | 47.4 | –
65 | O=C(O)c1ccc(O)cc1 [4-Hydroxybenzoic acid] | > 90 | –
66 | OP(O)c1ccccc1 [Phenylphosphinic acid] | > 90 | –
67 | CC(=O)OC[C@H]1O[C@@](COC(C)=O)(O[C@H]2O[C@H](COC(C)=O)[C@@H](OC(C)=O)[C@H](OC(C)=O)[C@H]2OC(C)=O)[C@@H](OC(C)=O)[C@@H]1OC(C)=O [Sucrose octaacetate] | > 70 | –
68 | CCC=CCCCCO (stereo in doubt) [(Z)-5-Octen-1-ol] | > 90 | –
69 | CC(C)(C)c1cc(CCC(=O)NN)cc(C(C)(C)C)c1O [3-[3,5-DI(tert-butyl)-4-hydroxyphenyl]propanohydrazide] | > 90 | –
70 | Cc1cc(Nc2ccc(O)cc2)ccc1N [4-Amino-4'-hydroxy-3-methyldiphenylamine] | 11.4 | –
71 | Oc1cccc(Cl)c1 [3-Chlorophenol] | > 90 | –
72 | CCCCOC(C)=O [Butyl acetate] | > 90 | –
73 | O=C(O)c1ccccc1C(=O)Nc1ccc(S(=O)(=O)Nc2nccs2)cc1 [Phthalylsulfathiazole] | > 50 | –
74 | Cc1cc2cc3c(C)cc(=O)oc3c(C)c2o1 [Trioxsalen] | > 20 | –
75 | CC1=C(C=O)C(C)(C)CC=C1 [Safranal] | > 100 | –
76 | O=C(O)Cc1nn(Cc2ccc(Br)cc2F)c(=O)c2ccccc12 [Ponalrestat] | > 50 | –
77 | CCCCCC1=CCCC1=O [2-Pentyl-2-cyclopenten-1-one] | > 90 | –
78 | COc1cc2c(cc1OC)[C@H]1CC(=O)[C@H](CC(C)C)CN1CC2 (racemic) [Tetrabenazine] | > 50 | –
79 | CCOP(=O)(O)N(c1ccc(SC)c(C)c1)C(C)C [Fenamiphos] | – | CC50 at 24 h (AC50 (uM) modified / 1000, Tox21_110001=Tox21_400081, viability, 1 nM T3 present, 24 h): > 90 µM
80 | CO[Si](OC)(OC)c1ccccc1 [Trimethoxyphenylsilane] | > 90 | –
81 | OC(CCN1CCCCC1)(c1ccccc1)c1ccccc1 [Pridinol] | 25.8 | –
82 | CC(C)(C)C1CCC(O)CC1 (stereo not drawn) [4-tert-Butylcyclohexanol] | > 90 | –
83 | CC(O)(c1ccc(Cl)cc1)c1ccc(Cl)cc1 [Chlorfenethol] | 76.2 | –
84 | CN(C(=O)CCCOc1ccc2[nH]c(=O)ccc2c1)C1CCCCC1 [Cilostamide] | > 50 | –
